Source: patent US9566312B2, “Cyclic peptides and use as medicines” (priority 2012, dated 2017)
Like-named read-outs stand apart in the source and are kept apart here. Starred links: 1 amine or outer side, 2 acyl side, 3 side chain; linkers in the order of their positions; H or OH if unused. Non-standard residues stand in square brackets, D forms with d. Residues, ends and D or L forms follow the SMILES beside them. X26 = C[C@H](CN1CCn2c(nnc2C(F)(F)F)C1)[C@@H](C(=O)[*:2])N(C)[*:1]; X37 = C[C@H](CN1CCC(S(C)(=O)=O)CC1)[C@@H](C(=O)[*:2])N(C)[*:1]; X56 = CCN1CCN(C(=O)OC[C@@H](C)[C@@H](C(=O)[*:2])N(C)[*:1])CC1; X29 = CC(=O)N1CCN(C[C@@H](C)[C@@H](C(=O)[*:2])N(C)[*:1])CC1; X41 = CC(C)N1CCN(C[C@@H](C)[C@@H](C(=O)[*:2])N(C)[*:1])CC1; X55 = C[C@H](CN(C)CC(=O)N(C)C)[C@@H](C(=O)[*:2])N(C)[*:1]; X34 = C[C@H](COC(=O)N1CCOCC1)[C@@H](C(=O)[*:2])N(C)[*:1]; X32 = C[C@H](CN1CC2(COC2)C1)[C@@H](C(=O)[*:2])N(C)[*:1]; X53 = C[C@H](CN(C)Cc1cccnc1)[C@@H](C(=O)[*:2])N(C)[*:1]; X30 = C[C@H](CN1CCCOCC1)[C@@H](C(=O)[*:2])N(C)[*:1]; X43 = COCCN(C)C[C@@H](C)[C@@H](C(=O)[*:2])N(C)[*:1]; MeBmt = C/C=C/C[C@@H](C)[C@@H](O)[C@H](NC)C(=O)O; NMeL = CN[C@@H](CC(C)C)C(=O)O; NMeV = CN[C@H](C(=O)O)C(C)C; dNMeA = CN[C@H](C)C(=O)O; Abu = CC[C@H](N)C(=O)O

Experiments:
[1] = target: cyclophilin A (CypA) (Homo sapiens (Human), UniProt P62937); experiment: Inhibitor binding to cyclophilin proteins by SPR, CypA; design: unit not given here; settings: 1:1 binding model;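 further: Single-cycle kinetics on a Biacore T200, compound injected at several concentrations for 1 min each at 50 µL/min, then 10 min dissociation, in HEPES pH 7.4 buffer with 3% DMSO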
[2] = target: cyclophilin B (CypB) (Homo sapiens (Human), UniProt P23284); experiment: Inhibitor binding to cyclophilin proteins by SPR, CypB; design: unit not given here; settings: 1:1 binding model
In short: (§1)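 Mono-biotinylated avi-tagged cyclophilins captured on a Biotin CAPture chip. Single-cycle kinetics at 50 μL/min, 1 min contacts, 10 min final dissociation, in 10 mM HEPES pH 7.4, 150 mM NaCl, 0.05% P20, 3% DMSO. kon, koff and KD from a 1:1 binding model.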

[3] = target: CypF (Homo sapiens (Human), UniProt P30405); experiment: Inhibitor binding to cyclophilin proteins by SPR, CypF; settings: 1:1 binding model
In short: as §1

[4] = test system: genotype 1b subgenomic HCV replicon in Huh7.5 cells; format: cell-based, hepatitis C virus; settings: read-out: RPLN-1b IC50
In short: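 Huh7.5 cells carrying genotype 1b subgenomic HCV replicon with renilla luciferase-neomycin reporter, in phenol red-free DMEM without G418. Luciferase measured after 72 h compound exposure relative to DMSO-treated cells; cytotoxicity (CC50) by Cell Titer-Glo.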

[5] = test system: peripheral blood mononuclear cells (PBMC); experiment: Anti-proliferative or immunosuppressive activity, BrdU incorporation in PHA-stimulated PBMC; format: cell-based; settings: PHA 3 μg/ml, 60 hour compound treatment; read-out: EMV PBMC IC50
In short: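 Fresh PBMCs from two donors, 30,000 per well in X-VIVO 15 medium, stimulated with 3 μg/ml PHA to drive T-cell proliferation. Proliferation measured as BrdU incorporation into DNA by BrdU ELISA.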

[6] = target: organic anion transporting polypeptide 1B1 (OATP1B1) (Homo sapiens (Human), UniProt Q9Y6L6); experiment: OATP assay in CHO-OATP1B1 cells;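 further: inhibition of probe substrate uptake into the cells, ten minutes exposure, accumulated substrate read by fluorescence once cells were lysed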
[7] = genotype 1b replicon, 72 h incubation

Chain of CypF (P30405 30-207): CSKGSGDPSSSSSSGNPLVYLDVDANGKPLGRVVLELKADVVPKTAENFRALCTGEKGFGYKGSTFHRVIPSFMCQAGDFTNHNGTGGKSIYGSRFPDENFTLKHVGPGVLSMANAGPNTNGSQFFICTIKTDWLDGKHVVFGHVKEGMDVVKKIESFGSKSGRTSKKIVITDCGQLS
Chain of cyclophilin B (CypB) (P23284 34-216): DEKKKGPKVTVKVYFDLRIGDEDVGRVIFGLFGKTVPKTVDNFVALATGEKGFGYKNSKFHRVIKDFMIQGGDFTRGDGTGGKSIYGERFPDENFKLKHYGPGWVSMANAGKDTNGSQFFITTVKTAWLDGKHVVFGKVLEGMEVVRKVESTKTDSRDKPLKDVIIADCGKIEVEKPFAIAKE
Chain of organic anion transporting polypeptide 1B1 (OATP1B1) (Q9Y6L6 whole entry): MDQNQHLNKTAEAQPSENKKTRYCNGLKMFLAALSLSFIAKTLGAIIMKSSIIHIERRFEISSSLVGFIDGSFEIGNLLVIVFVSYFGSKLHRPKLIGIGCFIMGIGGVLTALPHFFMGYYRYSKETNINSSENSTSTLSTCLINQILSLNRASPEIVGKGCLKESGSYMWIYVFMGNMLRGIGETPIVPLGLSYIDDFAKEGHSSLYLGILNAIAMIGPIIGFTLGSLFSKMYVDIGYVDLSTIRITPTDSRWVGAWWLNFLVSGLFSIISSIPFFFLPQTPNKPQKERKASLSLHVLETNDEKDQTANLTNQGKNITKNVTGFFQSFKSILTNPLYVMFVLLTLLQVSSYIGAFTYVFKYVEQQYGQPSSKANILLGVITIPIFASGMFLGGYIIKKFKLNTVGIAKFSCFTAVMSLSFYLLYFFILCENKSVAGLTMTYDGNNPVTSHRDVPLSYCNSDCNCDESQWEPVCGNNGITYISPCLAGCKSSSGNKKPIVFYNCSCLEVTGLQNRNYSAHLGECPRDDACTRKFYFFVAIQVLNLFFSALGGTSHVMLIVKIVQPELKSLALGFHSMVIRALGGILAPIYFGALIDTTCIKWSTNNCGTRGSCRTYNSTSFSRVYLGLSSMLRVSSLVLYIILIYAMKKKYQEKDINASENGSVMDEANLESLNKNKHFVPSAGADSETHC
Chain of cyclophilin A (CypA) (P62937 whole entry): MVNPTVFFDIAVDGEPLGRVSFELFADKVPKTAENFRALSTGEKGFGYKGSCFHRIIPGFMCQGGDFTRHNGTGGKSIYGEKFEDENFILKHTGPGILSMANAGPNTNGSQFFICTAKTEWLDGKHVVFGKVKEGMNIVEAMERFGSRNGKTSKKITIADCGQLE

C/C=C/C[C@@H](C)[C@@H](O)[C@H]1C(=O)N[C@@H](CC)C(=O)N(C)[C@H](C)C(=O)N(C)[C@@H]([C@H](C)COC(=O)N2CCOCC2)C(=O)N[C@@H](C(C)C)C(=O)N(C)[C@@H](CC(C)C)C(=O)N[C@@H](C)C(=O)N[C@H](C)C(=O)N(C)[C@@H](CC(C)C)C(=O)N(C)[C@@H](CC(C)C)C(=O)N(C)[C@@H](C(C)C)C(=O)N1C [Compound 2.5.7, 3-[D-Ala]-4-[(2S,3S)-3-methyl-2-(methylamino)-4-((morpholine-4-carbonyl)oxy)butanoyl]-cyclosporin] (cyclo([MeBmt][Abu][dNMeA][X34]V[NMeL]A[dA][NMeL][NMeL][NMeV]))
CypA Kd [1]: 2.1
CypB Kd [2]: 1.3
CypF Kd [3]: 1.5 nM
IC50 [4]: 48 nM
IC50 [5]: 19.3 µM
IC50 [6]: 2300 nM

C/C=C/C[C@@H](C)[C@@H](O)[C@H]1C(=O)N[C@@H](CC)C(=O)N(C)[C@H](C)C(=O)N(C)[C@@H]([C@H](C)CN2CCN(C(C)C)CC2)C(=O)N[C@@H](C(C)C)C(=O)N(C)[C@@H](CC(C)C)C(=O)N[C@@H](C)C(=O)N[C@H](C)C(=O)N(C)[C@@H](CC(C)C)C(=O)N(C)[C@@H](CC(C)C)C(=O)N(C)[C@@H](C(C)C)C(=O)N1C [Compound 2.5.12, 3-[D-Ala]-4[(2S,3R)-2-Amino-4-(4-isopropyl-piperazin-1-yl)-butanoyl]-cyclosporin] (cyclo(A[dA][NMeL][NMeL][NMeV][MeBmt][Abu][dNMeA][X41]V[NMeL]))
CypA Kd [1]: 1.0
CypB Kd [2]: 0.7
CypF Kd [3]: 0.4 nM
IC50 [4, 7]: 44 nM
IC50 [5]: 3.1 µM
IC50 [6]: 2440 nM

C/C=C/C[C@@H](C)[C@@H](O)[C@H]1C(=O)N[C@@H](CC)C(=O)N(C)[C@H](C)C(=O)N(C)[C@@H]([C@H](C)CN2CC3(COC3)C2)C(=O)N[C@@H](C(C)C)C(=O)N(C)[C@@H](CC(C)C)C(=O)N[C@@H](C)C(=O)N[C@H](C)C(=O)N(C)[C@@H](CC(C)C)C(=O)N(C)[C@@H](CC(C)C)C(=O)N(C)[C@@H](C(C)C)C(=O)N1C [Compound 2.5.16, 3-[D-Ala]-4-[(2S,3R)-3-methyl-2-(methylamino)-4-(2-oxa-6-azaspiro[3.3]heptan-6-yl)butanoyl]-cyclosporin] (cyclo(A[dA][NMeL][NMeL][NMeV][MeBmt][Abu][dNMeA][X32]V[NMeL]))
CypA Kd [1]: 1.4
CypB Kd [2]: 0.7
CypF Kd [3]: 0.7 nM
IC50 [4, 7]: 10 nM
IC50 [5]: 18 µM
IC50 [6]: 3400 nM

C/C=C/C[C@@H](C)[C@@H](O)[C@H]1C(=O)N[C@@H](CC)C(=O)N(C)[C@H](C)C(=O)N(C)[C@@H]([C@H](C)CN2CCn3c(nnc3C(F)(F)F)C2)C(=O)N[C@@H](C(C)C)C(=O)N(C)[C@@H](CC(C)C)C(=O)N[C@@H](C)C(=O)N[C@H](C)C(=O)N(C)[C@@H](CC(C)C)C(=O)N(C)[C@@H](CC(C)C)C(=O)N(C)[C@@H](C(C)C)C(=O)N1C [Compound 2.5.19, 3-[D-Ala]-4-[(2S,3R)-3-methyl-2-(methylamino)-4-(3-(trifluoromethyl)-5,6-dihydro-[1,2,4]triazolo[4,3-a]pyrazin-7(8H)-yl)butanoyl]-cyclosporin] (cyclo(A[dA][NMeL][NMeL][NMeV][MeBmt][Abu][dNMeA][X26]V[NMeL]))
CypA Kd [1]: 2.8
CypB Kd [2]: 1.2
CypF Kd [3]: 1.6 nM
IC50 [4, 7]: 75 nM
IC50 [5]: 12.6 µM
IC50 [6]: 1000 nM

C/C=C/C[C@@H](C)[C@@H](O)[C@H]1C(=O)N[C@@H](CC)C(=O)N(C)[C@H](C)C(=O)N(C)[C@@H]([C@H](C)CN2CCC(S(C)(=O)=O)CC2)C(=O)N[C@@H](C(C)C)C(=O)N(C)[C@@H](CC(C)C)C(=O)N[C@@H](C)C(=O)N[C@H](C)C(=O)N(C)[C@@H](CC(C)C)C(=O)N(C)[C@@H](CC(C)C)C(=O)N(C)[C@@H](C(C)C)C(=O)N1C [Compound 2.5.20, 3-[D-Ala]-4-[(2S,3R)-3-methyl-2-(methylamino)-4-(4-(methylsulfonyl)piperidin-1-yl)butanoyl]-cyclosporin] (cyclo(A[dA][NMeL][NMeL][NMeV][MeBmt][Abu][dNMeA][X37]V[NMeL]))
CypA Kd [1]: 3.7
CypB Kd [2]: 1.2
CypF Kd [3]: 1.6 nM
IC50 [4, 7]: 109 nM
IC50 [5]: 29.2 µM
IC50 [6]: 1800 nM

C/C=C/C[C@@H](C)[C@@H](O)[C@H]1C(=O)N[C@@H](CC)C(=O)N(C)[C@H](C)C(=O)N(C)[C@@H]([C@H](C)CN2CCCOCC2)C(=O)N[C@@H](C(C)C)C(=O)N(C)[C@@H](CC(C)C)C(=O)N[C@@H](C)C(=O)N[C@H](C)C(=O)N(C)[C@@H](CC(C)C)C(=O)N(C)[C@@H](CC(C)C)C(=O)N(C)[C@@H](C(C)C)C(=O)N1C [Compound 2.5.21, 3-[D-Ala]-4-[(2S,3R)-3-methyl-2-(methylamino)-4-(1,4-oxazepan-4-yl)butanoyl]-cyclosporin] (cyclo(A[dA][NMeL][NMeL][NMeV][MeBmt][Abu][dNMeA][X30]V[NMeL]))
CypA Kd [1]: 1.9
CypB Kd [2]: 0.9
CypF Kd [3]: 0.8 nM
IC50 [4, 7]: 37 nM
IC50 [5]: 4.5 µM
IC50 [6]: 1700 nM

C/C=C/C[C@@H](C)[C@@H](O)[C@H]1C(=O)N[C@@H](CC)C(=O)N(C)[C@H](C)C(=O)N(C)[C@@H]([C@H](C)CN(C)CCOC)C(=O)N[C@@H](C(C)C)C(=O)N(C)[C@@H](CC(C)C)C(=O)N[C@@H](C)C(=O)N[C@H](C)C(=O)N(C)[C@@H](CC(C)C)C(=O)N(C)[C@@H](CC(C)C)C(=O)N(C)[C@@H](C(C)C)C(=O)N1C [Compound 2.5.22, 3-[D-Ala]-4-[(2S,3R)-4-((2-methoxyethyl)(methyl)amino)-3-methyl-2-(methylamino)butanoyl]-cyclosporin] (cyclo(A[dA][NMeL][NMeL][NMeV][MeBmt][Abu][dNMeA][X43]V[NMeL]))
CypA Kd [1]: 1.7
CypB Kd [2]: 0.9
CypF Kd [3]: 0.9 nM
IC50 [4, 7]: 41 nM
IC50 [5]: 8.9 µM
IC50 [6]: 1900 nM

C/C=C/C[C@@H](C)[C@@H](O)[C@H]1C(=O)N[C@@H](CC)C(=O)N(C)[C@H](C)C(=O)N(C)[C@@H]([C@H](C)CN2CCN(C(C)=O)CC2)C(=O)N[C@@H](C(C)C)C(=O)N(C)[C@@H](CC(C)C)C(=O)N[C@@H](C)C(=O)N[C@H](C)C(=O)N(C)[C@@H](CC(C)C)C(=O)N(C)[C@@H](CC(C)C)C(=O)N(C)[C@@H](C(C)C)C(=O)N1C [Compound 2.5.23, 3-[D-Ala]-4-[(2S,3R)-4-(4-acetylpiperazin-1-yl)-3-methyl-2-(methylamino)butanoyl]-cyclosporin] (cyclo(A[dA][NMeL][NMeL][NMeV][MeBmt][Abu][dNMeA][X29]V[NMeL]))
CypA Kd [1]: 1.6
CypB Kd [2]: 0.7
CypF Kd [3]: 0.8 nM
IC50 [4, 7]: 47 nM
IC50 [5]: 22.8 µM
IC50 [6]: 2300 nM

C/C=C/C[C@@H](C)[C@@H](O)[C@H]1C(=O)N[C@@H](CC)C(=O)N(C)[C@H](C)C(=O)N(C)[C@@H]([C@H](C)COC(=O)N2CCN(CC)CC2)C(=O)N[C@@H](C(C)C)C(=O)N(C)[C@@H](CC(C)C)C(=O)N[C@@H](C)C(=O)N[C@H](C)C(=O)N(C)[C@@H](CC(C)C)C(=O)N(C)[C@@H](CC(C)C)C(=O)N(C)[C@@H](C(C)C)C(=O)N1C [Compound 2.5.24, 3-[D-Ala]-4-[(2S,3S)-4-((4-ethylpiperazine-1-carbonyl)oxy)-3-methyl-2-(methylamino)butanoyl]-cyclosporin] (cyclo(A[dA][NMeL][NMeL][NMeV][MeBmt][Abu][dNMeA][X56]V[NMeL]))
CypA Kd [1]: 0.5
CypB Kd [2]: 0.3
CypF Kd [3]: 0.3 nM
IC50 [4, 7]: 23 nM
IC50 [5]: 3.6 µM
IC50 [6]: 1900 nM

C/C=C/C[C@@H](C)[C@@H](O)[C@H]1C(=O)N[C@@H](CC)C(=O)N(C)[C@H](C)C(=O)N(C)[C@@H]([C@H](C)CN(C)Cc2cccnc2)C(=O)N[C@@H](C(C)C)C(=O)N(C)[C@@H](CC(C)C)C(=O)N[C@@H](C)C(=O)N[C@H](C)C(=O)N(C)[C@@H](CC(C)C)C(=O)N(C)[C@@H](CC(C)C)C(=O)N(C)[C@@H](C(C)C)C(=O)N1C [Compound 2.5.25, 3-[D-Ala]-4-[(2S,3R)-3-methyl-4-(methyl(pyridin-3-ylmethyl)amino)-2-(methylamino)butanoyl]-cyclosporin] (cyclo(A[dA][NMeL][NMeL][NMeV][MeBmt][Abu][dNMeA][X53]V[NMeL]))
CypA Kd [1]: 1.8
CypB Kd [2]: 1.0
CypF Kd [3]: 1 nM
IC50 [4, 7]: 22 nM
IC50 [5]: 5.6 µM
IC50 [6]: 1000 nM

C/C=C/C[C@@H](C)[C@@H](O)[C@H]1C(=O)N[C@@H](CC)C(=O)N(C)[C@H](C)C(=O)N(C)[C@@H]([C@H](C)CN(C)CC(=O)N(C)C)C(=O)N[C@@H](C(C)C)C(=O)N(C)[C@@H](CC(C)C)C(=O)N[C@@H](C)C(=O)N[C@H](C)C(=O)N(C)[C@@H](CC(C)C)C(=O)N(C)[C@@H](CC(C)C)C(=O)N(C)[C@@H](C(C)C)C(=O)N1C [Compound 2.5.27, 3-[D-Ala]-4-[(2S,3R)-4-((2-(dimethylamino)-2-oxoethyl)(methyl)amino)-3-methyl-2-(methylamino)butanoyl]-cyclosporin] (cyclo(A[dA][NMeL][NMeL][NMeV][MeBmt][Abu][dNMeA][X55]V[NMeL]))
CypA Kd [1]: 1.4
CypB Kd [2]: 0.8
CypF Kd [3]: 0.8 nM
IC50 [4, 7]: 26 nM
IC50 [5]: 14.8 µM
IC50 [6]: 2700 nM
